Experimental data reported in patent publication US11406631B2, “Hydrazone derivatives for preventing or treating EBV-related cancers” (Universite de Bretagne Occidentale, priority 2018, dated 2022).

Columns and labels:
G4-RNA EBNA1 = assay: HT-G4-FID assay: Thiazole Orange displacement from G4-RNA; assay type: binding, Epstein-Barr virus; settings: for DC50: K+-100 buffer, pH 7.3, triplicate assays; for affinity for the G-quadruplex structure of EBNA1 (in words, FID data): conclusion from Table 1
Method: This assay is based on the displacement of a fluorescent indicator (Thiazole Orange, hereinafter TO) from a G4-RNA structure (RNA G-quadruplex of EBNA1) by a putative ligand such as the compounds of the invention (see FIG. 1). This displacement is quantified as % TO displacement. The percentage of TO displacement is calculated from the fluorescence intensity (F) in the presence of a putative ligand, using:
[formula] where F0 is fluorescence intensity of the probe (TO) bound to RNA without added ligand. The percentage of displacement is then plotted as a function of the concentration of added ligand. The RNA affinity of putative ligands is evaluated using the concentration of a ligand required to decrease the fluorescence of the probe by 50% (noted DC50), which is determined graphically from non-linear fitting of the displacement curve. […] 2. Materials and Reagents
Thiazole Orange (TO) and cacodylic acid were purchased from Aldrich and used without further purification. The oligoribonucleotide EBNA1 [5′-r(GGGGCAGGAGCAGGAGGA)-3′] (SEQ ID no 1) purified by reversed-phase HPLC was purchased from Eurogentec.
Stock solutions of the ligands (2 mM in DMSO (dimethylsulfoxyde)) were used for G4-FID assay, unless otherwise stated, and were stored at −20° C. Stock solutions of TO (2 mM in DMSO) were used for G4-FID assay. Fluorescent probe powders and solutions were stored and used, protected from light and used as aliquots to avoid freeze-thaw cycles. HT-G4-FID measurements were performed on a FLUOstar Omega microplate reader (BMG Labtech) with 96-well Non-Binding Surface black with black bottom polystyrene microplates (Corning ref 3650).
For HT-G4-FID assay, the oligonucleotide was dissolved in K^+−100-buffer (10 mM lithium cacodylate, pH 7.3, 100 mM KCl, 1 mM EDTA, 1% DMSO). Oligonucleotide concentrations were determined on the basis of their absorbance at 260 nm. Prior to use, the oligonucleotide was pre-treated by heating at 95° C. for 5 min followed by a slow cooling to 25° C.
Each G4-FID assay is performed in a 96-well microplates. […] The microplate is filled with (a) K^+−100 solution (qs for 200 μL) (b) 10 μL of a solution of pre-folded oligonucleotides (5 μM) and TO (10 μM-2 eq) and (c) an extemporaneously prepared 5 μM ligand solution in K^+−100 buffer (0 to 100 μL along the line of the microplate, i.e., from column […]: 0, 0.125, 0.25, 0.375, 0.5, 0.625, 0.75, 1.0, 1.25, 1.5, 2.0 and 2.5 μM) (see Largy et al., Anal Bioanal Chem 2011, 400, 34193427). After 5 min of orbital shaking at 500 rpm, fluorescence intensity is measured using the following experimental parameters: positioning delay: 0.5 s, 20 flashes per well, emission/excitation filters (nm): 485/520, gain adjusted at 80% of the fluorescence from the most fluorescent well (i.e., a well from column A).
Results are shown in Table 1 below (lower DC50 values indicate higher affinity of compounds to the G4-RNA structure of EBNA1).

[1] = test system: GAr-based inhibition of translation; assay: Yeast assay (assays described in Lista et al.); assay type: cell-based, Saccharomyces cerevisiae
Excerpt: A yeast-based (Saccharomyces cerevisiae) assay that recapitulates all the aspects of the GAr-based inhibition of translation, including the GAr-length dependency, has been developed, that allowed understanding the mechanisms of GAr-mediated mRNA translation—suppression in cis, as well as the cellular factors involved (Lista et al. Biotechnol J 2015, 10, 1670-1681). This assay was successfully used to identify small molecular weight compounds that can stimulate EBNA1 expression both in yeast and mammalian cells and that relieve GAr-based limitation of antigen presentation (Voisset et al. Dis Model Mech 2014, 7, 435-444).
Compounds 1a, 2a, 4a, 5a, 7a, 10a and 11a were also tested in the various assay described in Lista et al. (Nat Commun 2017, 8, 16043).

[2] = test system: EBNA1 expression in EBV-infected cells; assay: Western blot of endogenous EBNA1 in EBV-infected cell lines (B95.8, Mutu-1, Raji); assay type: cell-based; settings: GAr-dependent; 2a in B95.8, Mutu-1 and Raji, 11a in Raji
Method: Therefore, compound 2a interferes with the GAr-based inhibition of protein expression. Interference with EBNA1 expression in EBV-infected cells was assessed in different cell lines. The principle of these experiments is the same than the one described in the paragraph just above except that the steady state level of endogenous EBNA1 is determined in these EBV-infected cell lines.
B95.8 cells are derived from cotton-top Tamarin Monkey peripheral blood lymphocyte EBV-positif. Mutu-1 cells are derived from an EBV-positive Burkitt's lymphoma biopsy specimen from a patient. Raji cells are EBV-positive type III latency Burkitt's lymphoma.
Compounds 2a and 11a increase in a GAr-dependent manner EBNA1 expression in EBV-infected cells.

[3] = test system: GAr-limited antigen presentation; assay: Antigen presentation assay (IL-2 ELISA); assay type: cell-based; settings: 5 μM and 10 μM, compared to DMSO-treated cells
Method: Stars indicate significant results (the higher the number of stars, the more significant). […]ns[…] stands for not significant.
The aim of this assay was to determine if compounds 2a and 11a were able to interfere (suppress) with the GAr-dependent limitation of EBNA1-derived antigenic peptid presentation. H1299 cells were transfected with 235GAr-OVA or OVA plasmids and murine MHC class I Kb plasmids. T-cell proliferation is determined using ELISA assay for Mouse IL-2 (IL-2 is a potent lymphoid cell growth factor which exerts its biological activity primarily in T cell). There is therefore a correlation between the quantity of IL2 released and the T-cell proliferation.
Quantifications of IL2 release following treatment with compounds 2a or 11a, as compared to DMSO-treated cells are shown in the FIG. 7. […] These compounds thus increase T-cell proliferation.

[4] = test system: interaction between NCL and the G4s of EBNA1 mRNA; assay: Proximity ligation assay (PLA) in H1299 cells transfected with EBNA1 plasmids; assay type: cell-based; settings: 5 μM
Excerpt: Stars indicate significant results (the higher the number of stars, the more significant).

Q: For `C[n+]1ccc(C=NNC(=O)c2cccc(C(=O)NN=Cc3cc[n+](C)c4ccccc34)n2)c2ccccc21.[I-].[I-]` [Compound 2a, N′^2, N′^6-Bis[(1-methylquinolinium-4-yl)methylene]pyridine-2,6-dicarbohydrazide iodide], which DC50 (G4-RNA EBNA1) is on record?
A: Its DC50 is 260 ± 50 nM.

Q: And the “affinity for the G-quadruplex structure of EBNA1 (in words, FID data)” value (G4-RNA EBNA1)?
A: Its value is “particularly high affinity”.

Q: What about the “result in the yeast assay” value [1] of the same compound?
A: The value was “positive results”.

Q: What about the “EBNA1 expression in EBV-infected cells” value [2] of the same compound?
A: The value was “increase”.

Q: What about the “release of IL-2, H1299 cells expressing 235GAr-OVA” value [3] of the same compound?
A: Its value is “significantly increased (two-fold change)”.

Q: What about the “release of IL-2, OVA-expressing cells” value [3] of the same compound?
A: Its value is “no effect”.

Q: And the “number of PLA dots and their intensity” value [4]?
A: Its value is “significantly reduce”.

Q: And the “number of nuclear PLA dots per cell” value [4]?
A: Its value is “significantly reduced”.

Q: For `C[n+]1ccc(C=NNC(=O)c2ccc3ccc4ccc(C(=O)NN=Cc5cc[n+](C)c6ccccc56)nc4c3n2)c2ccccc21.[I-].[I-]` [Compound 11a, N′^2,N′^9-Bis[(1-methylquinolinium-4-yl)methylene]-1,10-phenanthroline-2,9-dicarbohydrazide iodide], which DC50 (G4-RNA EBNA1) is on record?
A: The DC50 was 300 ± 30 nM.

Q: What about the “affinity for the G-quadruplex structure of EBNA1 (in words, FID data)” value (G4-RNA EBNA1) of the same compound?
A: The value was “particularly high affinity”.

Q: What about the “result in the yeast assay” value [1] of the same compound?
A: Its value is “positive results”.

Q: What about the “EBNA1 expression in EBV-infected cells” value [2] of the same compound?
A: Its value is “increase”.

Q: What about the “release of IL-2, H1299 cells expressing 235GAr-OVA” value [3] of the same compound?
A: Its value is “significantly increased (two-fold change)”.

Q: What about the “release of IL-2, OVA-expressing cells” value [3] of the same compound?
A: The value was “no effect”.

Q: And the “number of PLA dots and their intensity” value [4]?
A: The value was “significantly reduce”.

Q: And the “number of nuclear PLA dots per cell” value [4]?
A: Its value is “significantly reduced”.
